Type in all cases: biochemical
Common to all, as to details: wild-type un-phosphorylated protein; pre-incubated for 4 hours; ATP near or below Km

In assay [1] the target is wild-type un-phosphorylated FGFR3 (Homo sapiens, UniProt P22607). Nature of the assay: FGFR Enzymatic Assay (FRET peptide phosphorylation), FGFR3. How it is done: (§1) The inhibitor potency of the exemplified compounds was determined in an enzyme discontinuous assay that measures peptide phosphorylation using FRET measurements to detect product formation. Inhibitors were serially diluted in DMSO and a volume of 0.2 μL was transferred to the wells of a 384-well plate. […] Appropriate controls (enzyme blank and enzyme with no inhibitor) were included on the plate. […] The ATP Km values were pre-determined in a separate series of experiments. […] The plate was allowed to equilibrate for ˜10 minutes at ambient temperature before scanning on a PheraStar plate reader (BMG Labtech) instrument.
(§2) Either GraphPad prism or XLfit was used to analyze the data. The IC50 values were derived by fitting the data to a four parameter logistic equation producing a sigmoidal dose-response curve with a variable Hill coefficient. Prism equation: Y=Bottom+(Top−Bottom)/(1+10^((LogIC50−X)*Hill slope)); XLfit equation: Y=(A+((B−A)/(1+((X/C)^D)))) where X is the logarithm of inhibitor concentration and Y is the response.

Assay [2] has as its target wild-type un-phosphorylated FGFR1 (Homo sapiens, UniProt P11362). Nature of the assay: FGFR Enzymatic Assay (FRET peptide phosphorylation), FGFR1. How it is done:
as §1, §2

For assay [3], the target named is wild-type un-phosphorylated FGFR2 (Homo sapiens, UniProt P21802). Nature of the assay: FGFR Enzymatic Assay (FRET peptide phosphorylation), FGFR2. As to the method: as §1, §2
(§3) The data in Table 1 was measured in wild-type un-phosphorylated FGFR1, FGFR2, FGFR3 and FGFR4 protein.

Assay [4] has as its target wild-type un-phosphorylated FGFR4 (Homo sapiens, UniProt P22455). Nature of the assay: FGFR Enzymatic Assay (FRET peptide phosphorylation), FGFR4. How it is done:
as §1, §2, §3

A word on the IC50: it is the concentration at which inhibition is half-maximal.

Sequence of wild-type un-phosphorylated FGFR1 (P11362 22-822): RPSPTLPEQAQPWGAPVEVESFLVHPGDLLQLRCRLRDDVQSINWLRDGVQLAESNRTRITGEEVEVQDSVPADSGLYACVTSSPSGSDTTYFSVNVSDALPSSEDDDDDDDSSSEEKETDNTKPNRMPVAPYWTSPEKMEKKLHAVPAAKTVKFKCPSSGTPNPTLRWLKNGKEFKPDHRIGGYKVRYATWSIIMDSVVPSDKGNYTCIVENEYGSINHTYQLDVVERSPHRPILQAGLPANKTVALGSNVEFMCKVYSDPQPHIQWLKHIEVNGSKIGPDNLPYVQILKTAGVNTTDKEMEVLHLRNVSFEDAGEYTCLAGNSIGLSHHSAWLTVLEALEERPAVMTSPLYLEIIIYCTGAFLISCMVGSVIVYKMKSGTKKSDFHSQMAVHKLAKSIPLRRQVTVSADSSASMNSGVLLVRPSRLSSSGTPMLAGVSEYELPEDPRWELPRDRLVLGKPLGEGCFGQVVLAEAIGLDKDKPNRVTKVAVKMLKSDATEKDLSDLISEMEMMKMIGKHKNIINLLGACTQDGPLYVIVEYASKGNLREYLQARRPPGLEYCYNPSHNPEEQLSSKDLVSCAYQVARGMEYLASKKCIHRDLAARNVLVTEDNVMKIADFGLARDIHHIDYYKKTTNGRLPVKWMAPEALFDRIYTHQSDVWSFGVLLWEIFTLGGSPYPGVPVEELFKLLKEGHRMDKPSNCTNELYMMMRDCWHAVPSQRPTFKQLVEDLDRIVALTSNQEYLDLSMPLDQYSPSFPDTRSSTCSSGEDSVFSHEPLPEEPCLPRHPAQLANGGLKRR
Sequence of wild-type un-phosphorylated FGFR2 (P21802 22-821): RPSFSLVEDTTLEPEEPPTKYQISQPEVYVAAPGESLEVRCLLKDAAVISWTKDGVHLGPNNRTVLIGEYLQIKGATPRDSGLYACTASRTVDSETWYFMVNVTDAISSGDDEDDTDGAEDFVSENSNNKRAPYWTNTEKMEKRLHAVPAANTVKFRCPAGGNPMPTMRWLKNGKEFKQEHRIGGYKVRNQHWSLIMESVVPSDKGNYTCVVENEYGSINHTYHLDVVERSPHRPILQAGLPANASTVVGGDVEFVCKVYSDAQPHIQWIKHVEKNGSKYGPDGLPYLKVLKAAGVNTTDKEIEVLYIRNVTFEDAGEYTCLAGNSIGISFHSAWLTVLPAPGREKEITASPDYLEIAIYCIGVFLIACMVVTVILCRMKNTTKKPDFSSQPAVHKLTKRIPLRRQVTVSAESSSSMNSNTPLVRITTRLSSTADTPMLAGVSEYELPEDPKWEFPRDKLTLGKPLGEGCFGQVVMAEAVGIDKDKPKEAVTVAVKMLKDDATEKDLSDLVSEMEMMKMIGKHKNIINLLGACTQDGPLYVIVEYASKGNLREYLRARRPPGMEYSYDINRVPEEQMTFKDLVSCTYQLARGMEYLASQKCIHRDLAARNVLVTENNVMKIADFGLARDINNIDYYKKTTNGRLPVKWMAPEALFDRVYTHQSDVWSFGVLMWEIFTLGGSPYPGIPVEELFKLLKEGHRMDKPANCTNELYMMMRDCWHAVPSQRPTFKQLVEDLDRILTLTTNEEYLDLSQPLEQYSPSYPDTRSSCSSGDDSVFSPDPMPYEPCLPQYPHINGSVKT
Sequence of wild-type un-phosphorylated FGFR3 (P22607 23-806): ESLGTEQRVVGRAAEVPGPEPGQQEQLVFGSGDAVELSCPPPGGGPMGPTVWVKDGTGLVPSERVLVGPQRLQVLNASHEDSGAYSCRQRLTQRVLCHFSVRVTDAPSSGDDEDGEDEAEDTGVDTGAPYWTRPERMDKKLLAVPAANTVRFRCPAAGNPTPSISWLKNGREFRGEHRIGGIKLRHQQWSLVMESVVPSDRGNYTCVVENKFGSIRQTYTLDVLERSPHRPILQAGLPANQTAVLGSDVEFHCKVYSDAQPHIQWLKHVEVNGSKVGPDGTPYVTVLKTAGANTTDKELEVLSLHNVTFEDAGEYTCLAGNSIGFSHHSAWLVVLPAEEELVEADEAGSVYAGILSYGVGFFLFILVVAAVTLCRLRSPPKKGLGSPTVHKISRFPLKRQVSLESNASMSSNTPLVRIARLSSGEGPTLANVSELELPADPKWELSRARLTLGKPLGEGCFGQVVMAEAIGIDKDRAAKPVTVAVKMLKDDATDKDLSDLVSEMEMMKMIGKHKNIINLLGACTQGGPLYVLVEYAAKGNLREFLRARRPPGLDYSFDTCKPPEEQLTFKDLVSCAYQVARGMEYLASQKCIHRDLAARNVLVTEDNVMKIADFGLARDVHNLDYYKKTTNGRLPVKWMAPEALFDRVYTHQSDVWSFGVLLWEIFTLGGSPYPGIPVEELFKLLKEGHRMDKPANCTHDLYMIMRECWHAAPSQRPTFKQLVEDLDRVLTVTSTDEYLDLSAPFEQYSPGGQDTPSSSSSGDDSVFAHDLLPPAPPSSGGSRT
Sequence of wild-type un-phosphorylated FGFR4 (P22455 22-802): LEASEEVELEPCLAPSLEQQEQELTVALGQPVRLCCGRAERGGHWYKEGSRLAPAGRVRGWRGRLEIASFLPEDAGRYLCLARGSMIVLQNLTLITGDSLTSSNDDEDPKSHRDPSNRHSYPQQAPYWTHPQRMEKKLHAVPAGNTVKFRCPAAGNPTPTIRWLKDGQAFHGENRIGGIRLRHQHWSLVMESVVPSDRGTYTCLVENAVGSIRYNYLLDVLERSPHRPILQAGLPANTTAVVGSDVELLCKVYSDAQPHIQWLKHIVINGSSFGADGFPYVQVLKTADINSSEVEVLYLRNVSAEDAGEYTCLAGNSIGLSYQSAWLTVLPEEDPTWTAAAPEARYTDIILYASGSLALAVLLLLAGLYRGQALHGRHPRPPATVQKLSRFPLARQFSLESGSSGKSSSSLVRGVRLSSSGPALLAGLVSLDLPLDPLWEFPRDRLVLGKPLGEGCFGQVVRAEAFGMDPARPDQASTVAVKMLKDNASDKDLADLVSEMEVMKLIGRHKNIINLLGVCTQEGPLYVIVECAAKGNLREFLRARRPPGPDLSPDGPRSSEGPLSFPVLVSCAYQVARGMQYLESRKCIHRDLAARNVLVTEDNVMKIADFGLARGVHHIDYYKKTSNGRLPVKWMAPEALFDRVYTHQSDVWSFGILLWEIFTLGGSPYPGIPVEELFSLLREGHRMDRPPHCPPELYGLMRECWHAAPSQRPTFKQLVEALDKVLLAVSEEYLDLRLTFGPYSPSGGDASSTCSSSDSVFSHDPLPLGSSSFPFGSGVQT

Turning to `CNC(=O)c1cc(-c2cnc3cc(-c4cnn(CCN5CCOCC5)c4)c(O[C@H]4CCOC4)nn23)c(F)c(C(F)F)c1` [Example 30, (S)-3-(Difluoromethyl)-4-fluoro-N-methyl-5-(7-(1-(2-morpholinoethyl)-1H-pyrazol-4-yl)-6-((tetrahydrofuran-3-yl)oxy)imidazo[1,2-b]pyridazin-3-yl)benzamide], the IC50 in assay [1] was less than 10 nM; in assay [2] it was 10 to 100 nM; in assay [3] it was less than 10 nM; in assay [4], 10 to 100 nM.
Take `CNC(=O)c1cc(F)c(F)c(-c2cnc3cc(-c4cnn5c4CCC5)c(O[C@H]4CCOC4)nn23)c1` [Example 22, (S)-3-(7-(5,6-Dihydro-4H-pyrrolo[1,2-b]pyrazol-3-yl)-6-((tetrahydrofuran-3-yl)oxy)imidazo[1,2-b]pyridazin-3-yl)-4,5-difluoro-N-methylbenzamide]: the IC50 in assay [1] was less than 10 nM; in assay [2], 10 to 100 nM; in assay [3], less than 10 nM; in assay [4] it was 100 to 400 nM.
As for `CNC(=O)c1cccc(-c2cnc3cc(-c4cnn(C)c4)c(OC4COC4)nn23)c1` [Example 58, N-Methyl-3-(7-(1-methyl-1H-pyrazol-4-yl)-6-(oxetan-3-yloxy)imidazo[1,2-b]pyridazin-3-yl)benzamide], the IC50 in assay [3] was less than 10 nM; in assay [4] it was 100 to 400 nM.
In the case of `CNC(=O)c1cc(F)c(F)c(-c2cnc3cc(-c4cnn(C)c4)c(N[C@H]4CCOC4)nn23)c1` [Example 19, (S)-3,4-Difluoro-N-methyl-5-(7-(1-methyl-1H-pyrazol-4-yl)-6-((tetrahydrofuran-3-yl)amino)imidazo[1,2-b]pyridazin-3-yl)benzamide], the results for the IC50 in assay [1], in assay [2] and in assay [3] were less than 10 nM, 10 to 100 nM and less than 10 nM, respectively.
For the compound `CNC(=O)c1cc(F)c(F)c(-c2cnc3cc(-c4cnn(C(C)C)c4)c(O[C@H]4CCOC4)nn23)c1` [Example 24, (S)-3,4-Difluoro-5-(7-(1-isopropyl-1H-pyrazol-4-yl)-6-((tetrahydrofuran-3-yl)oxy)imidazo[1,2-b]pyridazin-3-yl)-N-methylbenzamide], the concentration for half-maximal inhibition (IC50) in assay [1], in assay [2] and in assay [3] was less than 10 nM each time.
The compound `CNC(=O)c1cccc(-c2cnc3cc(-c4cnn(C)c4)c(OC)nn23)c1` [Example 2, 3-(6-Methoxy-7-(1-methyl-1H-pyrazol-4-yl)imidazo[1,2-b]pyridazin-3-yl)-N-methylbenzamide] yielded an IC50 in assay [4] of no less than 400 nM.
In the case of `CC(C)n1cc(-c2cc3ncc(-c4cccc(F)c4F)n3nc2O[C@H]2CCOC2)cn1` [Example 46, (S)-3-(2,3-Difluorophenyl)-7-(1-isopropyl-1H-pyrazol-4-yl)-6-((tetrahydrofuran-3-yl)oxy)imidazo[1,2-b]pyridazine], the IC50 is 10 to 100 nM in assay [1], 100 to 400 nM in assay [2] and 10 to 100 nM in assay [3].
Regarding `CNC(=O)c1cc(-c2cnc3cc(-c4ccc(C(=O)NC)c(F)c4)c(O[C@H]4CCOC4)nn23)c(F)c(C(F)F)c1` [Example 36, (S)-3-(Difluoromethyl)-4-fluoro-5-(7-(3-fluoro-4-(methylcarbamoyl)phenyl)-6-((tetrahydrofuran-3-yl)oxy)imidazo[1,2-b]pyridazin-3-yl)-N-methylbenzamide], the IC50 in assay [1] lay in the range of 10 to 100 nM; in assay [2], 100 to 400 nM; in assay [3], 10 to 100 nM.
`CNC(=O)c1cncc(-c2cnc3cc(-c4ccc(N5CCN(C)CC5)cc4)c(O[C@H]4CCOC4)nn23)c1` [Example 68, (S)—N-Methyl-5-(7-(4-(4-methylpiperazin-1-yl)phenyl)-6-((tetrahydrofuran-3-yl)oxy)imidazo[1,2-b]pyridazin-3-yl)nicotinamide]: the IC50 in assay [1] is less than 10 nM; in assay [2], 10 to 100 nM; in assay [3], 10 to 100 nM.
As to `CNC(=O)c1cc(F)c(F)c(-c2cnc3cc(-c4cnn(C5CCN(S(=O)(=O)N(C)C)CC5)c4)c(O[C@H]4CCOC4)nn23)c1` [Example 76, (S)-3-(7-(1-(1-(N,N-Dimethylsulfamoyl)piperidin-4-yl)-1H-pyrazol-4-yl)-6-((tetrahydrofuran-3-yl)oxy)imidazo[1,2-b]pyridazin-3-yl)-4,5-difluoro-N-methylbenzamide], the IC50 in assay [1], in assay [2] and in assay [3] was less than 10 nM each time.
Take `CNC(=O)c1cc(CN2CCCC2)c(F)c(-c2cnc3cc(-c4cnn(C)c4)c(O[C@H]4CCOC4)nn23)c1` [Example 45, (S)-4-Fluoro-N-methyl-3-(7-(1-methyl-1H-pyrazol-4-yl)-6-((tetrahydrofuran-3-yl)oxy)imidazo[1,2-b]pyridazin-3-yl)-5-(pyrrolidin-1-ylmethyl)benzamide]: the IC50 in assay [1], in assay [2] and in assay [3] was 10 to 100 nM throughout.
Take `CNC(=O)c1cccc(-c2cnc3cc(-c4cnn(C)c4)c(OC)cn23)c1` [Example 1, 3-(6-Methoxy-7-(1-methyl-1H-pyrazol-4-yl)imidazo[1,2-a]pyridine-3-yl)-N-methylbenzamide]: the figures for the IC50 in assay [1], in assay [2] and in assay [4] were 10 to 100 nM, no less than 400 nM and no less than 400 nM, respectively.
On to `CNC(=O)c1cc(-c2cnc3cc(-c4cnn(C(C)(C)C#N)c4)c(O[C@H]4CCOC4)nn23)c(F)c(C(F)F)c1` [Example 26, (S)-3-(7-(1-(2-Cyanopropan-2-yl)-1H-pyrazol-4-yl)-6-((tetrahydrofuran-3-yl)oxy)imidazo[1,2-b]pyridazin-3-yl)-5-(difluoromethyl)-4-fluoro-N-methylbenzamide], for which the IC50 is less than 10 nM in assay [1], 10 to 100 nM in assay [2] and less than 10 nM in assay [3].
On to `CNC(=O)c1cc(-c2cnc3cc(-c4ccc(N5CCCC5=O)nc4)c(O[C@H]4CCOC4)nn23)c(F)c(C(F)F)c1` [Example 33, (S)-3-(Difluoromethyl)-4-fluoro-N-methyl-5-(7-(6-(2-oxopyrrolidin-1-yl)pyridin-3-yl)-6-((tetrahydrofuran-3-yl)oxy)imidazo[1,2-b]pyridazin-3-yl)benzamide], for which the 50% inhibitory concentration (IC50) in assay [1] is less than 10 nM; in assay [2], 100 to 400 nM; in assay [3], 10 to 100 nM.
For `CNC(=O)c1cc(F)c(F)c(-c2cnc3cc(-c4cnn(C5CCN(C(=O)N(C)C)CC5)c4)c(O[C@H]4CCOC4)nn23)c1` [Example 73, (S)-4-(4-(3-(2,3-Difluoro-5-(methylcarbamoyl)phenyl)-6-((tetrahydrofuran-3-yl)oxy)imidazo[1,2-b]pyridazin-7-yl)-1H-pyrazol-1-yl)-N,N-dimethylpiperidine-1-carboxamide], the IC50 in assay [1], in assay [2] and in assay [3] was less than 10 nM in each case.
On to `CNC(=O)c1cc(CO)c(F)c(-c2cnc3cc(-c4cnn(C)c4)c(O[C@H]4CCOC4)nn23)c1` [Example 40, (S)-4-Fluoro-3-(hydroxymethyl)-N-methyl-5-(7-(1-methyl-1H-pyrazol-4-yl)-6-((tetrahydrofuran-3-yl)oxy)imidazo[1,2-b]pyridazin-3-yl)benzamide], for which the IC50 was less than 10 nM in assay [1], 10 to 100 nM in assay [2] and less than 10 nM in assay [3].
`CNC(=O)c1cc(F)c(F)c(-c2cnc3cc(-c4cnn(C5COC5)c4)c(O[C@H]4CCOC4)nn23)c1` [Example 23, (S)-3,4-Difluoro-N-methyl-5-(7-(1-(oxetan-3-yl)-1H-pyrazol-4-yl)-6-((tetrahydrofuran-3-yl)oxy)imidazo[1,2-b]pyridazin-3-yl)benzamide]: the IC50 was less than 10 nM in assay [1], 10 to 100 nM in assay [2] and less than 10 nM in assay [3].
For `CNC(=O)c1cc(-c2cnc3cc(-c4cnn(Cc5cccnc5)c4)c(O[C@H]4CCOC4)nn23)c(F)c(C(F)F)c1` [Example 29, (S)-3-(Difluoromethyl)-4-fluoro-N-methyl-5-(7-(1-(pyridin-3-ylmethyl)-1H-pyrazol-4-yl)-6-((tetrahydrofuran-3-yl)oxy)imidazo[1,2-b]pyridazin-3-yl)benzamide], the IC50 is less than 10 nM in assay [1], 10 to 100 nM in assay [2] and less than 10 nM in assay [3].

For the origin of these results see patent publication US12012409B2, “Bicyclic heterocycles as FGFR inhibitors” (Incyte Corporation, priority 2020, dated 2024).
